From patent US20160030498A1, “HERBAL COMPOSITIONS FOR TREATING PAIN AND SKIN DISORDERS” (RUPAK ENTERPRISES (P) LIMITED, priority 2013, published 2016)

Key:
[1] = system: proliferative dermatological disorders; experiment: Use in human subjects suffering from dermatological disorders; type: in vivo; details: humans
Source text: Another embodiment of the present invention refers to method of use of a composition comprising of Acetyl-11-keto-beta-boswellic acid (BOSWELLIC ACID) and Bakuchiol for alleviation and management of skin rashes, itching, and boils resulting from skin proliferative disorders, specifically psoriasis, atopic dermatitis. For example, the method of use disclosed herein may be administered alongside steroidal therapy during the steroid dose tapering phase, followed by standalone administration of the combination provides complete remission of skin conditions, and is maintained that upon continuance of recommended dosage. In certain embodiments the skin disorder may be resulting from irritants, allergens, trigger, or autoimmune reasons, and the combination defined herein is effective in all of the above. The present invention includes the formulation of a Bakuchiol and BOSWELLIC ACID combination in an oral dosage form or, lotion, cream, ointment which can be applied topically.

LOX = LOX inhibition assay; type: biochemical

| IC50 (LOX) | Compound | Remission of proliferative dermatological conditions [1] |
| --- | --- | --- |
|  | 3-o-Acetyl-11-keto-beta-boswellic acid | substantial remission |
| 3.1 µM | C=C[C@@](C)(/C=C/c1ccc(O)cc1)CCC=C(C)C [Bakuchiol] |  |
